Tests used:
Assay type in all cases: biochemical
[1] = target: T1, TRKA(h) (Homo sapiens, UniProt P04629); experiment: TRKA KinaseProfiler radiometric protein kinase assay; settings: 120 μM ATP, 40 minutes at room temperature
T1 construct: purchased Merck Millipore (KinaseProfiler service)
Experimental: (§1) In vitro essays were performed by the company Merck Millipore in their KinaseProfiler radiometric protein kinase assay as paid commercial service. The compounds IC50 values for inhibition of individual protein kinases were determined. Dose-response curves were plotted from inhibition data generated, each in duplicate, from 10 point serial dilutions of inhibitory compounds. Concentration of compound was plotted against % kinase activity. To generate IC50 values, the dose-response curves were fitted to a standard sigmoidal curve and IC50 values were derived by standard nonlinear regression analysis.
(§2) All tested compounds were prepared in 100% DMSO to final assay concentrations either 0.5 mM (for the concentration row A, see below) or 0.05 mM (for the concentration row B). This working stock of the compound was added to the assay well as the first component in the reaction, followed by the remaining components as detailed below. The stock solution was added to the individual assay wells in such amounts that the concentrations of the compound were either in the row A (0.001 μM, 0.003 μM, 0.01 μM, 0.03 μM, 0.1 μM, 0.3 μM, 1.0 μM, 3.0 μM, and 10.0 μM) or in the row B (0.0001 μM, 0.0003 μM, 0.001 μM, 0.003 μM, 0.01 μM, 0.03 μM, 0.1 μM, 0.3 μM, and 1.0 μM). There was no pre-incubation step between the compound and the kinase prior to initiation of the reaction.
(§3) The positive control wells contained all components of the reaction, except the compound of interest; however, DMSO (at a final concentration of 2%) was included in these wells to control for solvent effects. The blank wells contained all components of the reaction, with staurosporine as a reference inhibitor replacing the compound of interest. This abolished kinase activity and established the base-line (0% kinase activity remaining).
TRKA(h) was diluted in the buffer (20 mM MOPS, 1 mM EDTA, 0.01% Brij-35, 5% Glycerol, 0.1% β-mercaptoethanol, 1 mg/mL BSAs) to the concentration of 1.01 mg/mL prior to addition to the reaction mix.
(§4) The above stock solution of TRKA(h) was added to a mixture containing 8 mM MOPS pH 7.0, 0.2 mM EDTA, and 250 μM KKKSPGEYVNIEFG, in such amount that the resulting concentration of TRKA(h) was 28.2 nM. This mixture was added to the stock solution of the tested compound. The reaction was initiated by the addition of the MgATP mix in such amount that the resulting concentration of Mg acetate in the reaction mixture was 10 mM and [γ-^33P-ATP] (specific activity approx. 500 cpm/pmol) was 120 μM. After incubation for 40 minutes at room temperature, the reaction was stopped by the addition of 3% phosphoric acid solution. […]

[2] = target: T2, CLK4 (h) (Homo sapiens, UniProt Q9HAZ1); experiment: CLK4 KinaseProfiler radiometric protein kinase assay; settings: 15 μM ATP, 40 minutes at room temperature
T2 construct: purchased Merck Millipore (KinaseProfiler service)
T2 sequence (Q9HAZ1 whole entry): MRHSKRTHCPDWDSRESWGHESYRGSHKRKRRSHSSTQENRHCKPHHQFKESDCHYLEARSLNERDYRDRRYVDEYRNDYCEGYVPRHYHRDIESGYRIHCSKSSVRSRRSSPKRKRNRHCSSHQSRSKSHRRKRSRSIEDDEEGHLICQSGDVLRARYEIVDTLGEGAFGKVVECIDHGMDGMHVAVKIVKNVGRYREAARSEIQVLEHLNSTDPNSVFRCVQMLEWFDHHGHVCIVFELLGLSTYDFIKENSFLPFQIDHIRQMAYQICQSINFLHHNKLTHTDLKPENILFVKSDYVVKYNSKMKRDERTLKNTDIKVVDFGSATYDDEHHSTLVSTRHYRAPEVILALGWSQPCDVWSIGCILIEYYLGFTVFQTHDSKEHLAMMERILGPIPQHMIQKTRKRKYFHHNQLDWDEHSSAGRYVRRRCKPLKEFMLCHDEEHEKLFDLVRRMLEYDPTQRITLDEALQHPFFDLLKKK
Experimental: as §1, §2, §3
CLK4 (h) was diluted in the buffer (20 mM MOPS, 1 mM EDTA, 0.01% Brij-35, 5% Glycerol, 0.1% β-mercaptoethanol, 1 mg/mL BSAs) to the concentration of 1.01 mg/mL prior to addition to the reaction mix.
(§5) The above stock solution of CLK4(h) was added to a mixture containing 8 mM MOPS pH 7.0, 0.2 mM EDTA, and 200 μM […](p) EDEEE in such amount that the resulting concentration of CLK4(h) was 140.8 nM. This mixture was added to the stock solution of the tested compound. The reaction was initiated by the addition of the MgATP mix in such amount that the resulting concentration of Mg acetate in the reaction mixture was 10 mM and [γ-^33P-ATP] (specific activity approx. 500 cpm/pmol) was 15 μM. After incubation for 40 minutes at room temperature, the reaction was stopped by the addition of 3% phosphoric acid solution. 10 μL of the reaction was then spotted onto a P30 filtermat and washed three times for 5 minutes in 75 mM phosphoric acid and once in methanol prior to drying and scintillation counting.

[3] = target: T3, FLT3(h) (Homo sapiens, UniProt P36888); experiment: FLT3 KinaseProfiler radiometric protein kinase assay; settings: 200 μM ATP, 40 minutes at room temperature
T3 construct: purchased Merck Millipore (KinaseProfiler service)
T3 sequence (P36888 27-993): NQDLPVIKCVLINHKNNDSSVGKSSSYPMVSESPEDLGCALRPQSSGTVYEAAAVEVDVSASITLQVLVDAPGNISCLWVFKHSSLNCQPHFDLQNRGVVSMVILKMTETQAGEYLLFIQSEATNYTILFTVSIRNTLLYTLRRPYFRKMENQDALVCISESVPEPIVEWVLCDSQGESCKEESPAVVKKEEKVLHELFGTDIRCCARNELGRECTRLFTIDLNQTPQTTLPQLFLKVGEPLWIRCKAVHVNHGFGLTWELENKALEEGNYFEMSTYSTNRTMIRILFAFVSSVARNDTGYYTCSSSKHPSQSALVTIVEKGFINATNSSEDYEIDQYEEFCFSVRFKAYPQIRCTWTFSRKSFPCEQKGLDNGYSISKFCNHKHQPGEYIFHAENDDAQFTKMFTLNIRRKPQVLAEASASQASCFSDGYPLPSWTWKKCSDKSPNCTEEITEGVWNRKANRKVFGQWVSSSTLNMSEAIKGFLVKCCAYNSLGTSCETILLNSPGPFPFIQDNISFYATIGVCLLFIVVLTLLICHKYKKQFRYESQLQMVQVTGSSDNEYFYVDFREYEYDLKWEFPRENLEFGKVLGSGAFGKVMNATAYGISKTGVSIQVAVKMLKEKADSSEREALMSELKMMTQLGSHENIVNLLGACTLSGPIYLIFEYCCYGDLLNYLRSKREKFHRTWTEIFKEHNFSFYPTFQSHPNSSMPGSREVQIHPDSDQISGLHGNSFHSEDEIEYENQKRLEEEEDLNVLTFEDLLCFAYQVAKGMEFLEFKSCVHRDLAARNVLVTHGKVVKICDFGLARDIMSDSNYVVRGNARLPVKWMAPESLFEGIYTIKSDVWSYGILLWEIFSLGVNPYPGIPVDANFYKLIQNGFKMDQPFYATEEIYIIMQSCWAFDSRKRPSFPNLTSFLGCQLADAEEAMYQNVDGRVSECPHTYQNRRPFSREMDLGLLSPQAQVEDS
Experimental: as §1, §2, §3
FLT3(h) was diluted in the buffer (20 mM MOPS, 1 mM EDTA, 0.01% Brij-35, 5% Glycerol, 0.1% β-mercaptoethanol, 1 mg/mL BSAs) to the concentration of 1.01 mg/mL prior to addition to the reaction mix.
The above stock solution of Flt3(h) was added to a mixture containing 8 mM MOPS pH 7.0, 0.2 mM EDTA, and 50 μM EAIYAAPFAKKK, in such amount that the resulting concentration of FLT3(h) was 28.3 nM. This mixture was added to the stock solution of the tested compound. The reaction was initiated by the addition of the MgATP mix in such amount that the resulting concentration of Mg acetate in the reaction mixture was 10 mM and [γ-^33P-ATP] (specific activity approx. 500 cpm/pmol) was 200 μM. After incubation for 40 minutes at room temperature, the reaction was stopped by the addition of 3% phosphoric acid solution. 10 μL of the reaction was then spotted onto a P30 filtermat and washed three times for 5 minutes in 75 mM phosphoric acid and once in methanol prior to drying and scintillation counting.

[4] = target: T4, CLK2 (h) (Homo sapiens, UniProt P49760); experiment: CLK2 KinaseProfiler radiometric protein kinase assay; settings: radiometric, 15 μM ATP, 40 minutes at room temperature; read-out: CLK2 IC50
T4 construct: purchased Merck Millipore (KinaseProfiler service)
T4 sequence (P49760 whole entry): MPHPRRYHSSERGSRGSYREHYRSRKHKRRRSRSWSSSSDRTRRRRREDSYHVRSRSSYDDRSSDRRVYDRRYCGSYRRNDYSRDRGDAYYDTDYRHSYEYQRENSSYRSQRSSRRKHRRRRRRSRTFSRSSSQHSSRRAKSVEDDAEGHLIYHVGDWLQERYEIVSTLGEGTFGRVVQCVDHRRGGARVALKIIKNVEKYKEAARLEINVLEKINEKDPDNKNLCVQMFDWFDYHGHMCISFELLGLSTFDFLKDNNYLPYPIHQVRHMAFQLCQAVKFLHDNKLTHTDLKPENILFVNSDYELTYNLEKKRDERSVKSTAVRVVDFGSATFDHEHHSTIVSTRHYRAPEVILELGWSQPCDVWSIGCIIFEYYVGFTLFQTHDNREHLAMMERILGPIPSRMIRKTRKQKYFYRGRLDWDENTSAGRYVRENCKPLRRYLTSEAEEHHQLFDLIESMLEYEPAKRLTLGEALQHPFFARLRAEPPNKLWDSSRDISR
Experimental: as §1, §2, §3
CLK2 (h) was diluted in the buffer (20 mM MOPS (3-(N-morpholino)propanesulfonic acid), 1 mM EDTA (ethylendiaminotetraacetic acid), 0.01% Brij-35 (detergent), 5% Glycerol, 0.1% β-mercaptoethanol, 1 mg/mL BSAs) to the concentration of 1.01 mg/mL prior to addition to the reaction mix.
as §5, with “CLK2(h)” for “CLK4(h)”, “20” for “200”, “2.1” for “140.8”

[5] = target: T5, HIPK2(h) (Homo sapiens, UniProt Q9H2X6); experiment: HIPK2 KinaseProfiler radiometric protein kinase assay; settings: 10 μM ATP, 40 minutes at room temperature
T5 construct: purchased Merck Millipore (KinaseProfiler service)
T5 sequence (Q9H2X6 whole entry): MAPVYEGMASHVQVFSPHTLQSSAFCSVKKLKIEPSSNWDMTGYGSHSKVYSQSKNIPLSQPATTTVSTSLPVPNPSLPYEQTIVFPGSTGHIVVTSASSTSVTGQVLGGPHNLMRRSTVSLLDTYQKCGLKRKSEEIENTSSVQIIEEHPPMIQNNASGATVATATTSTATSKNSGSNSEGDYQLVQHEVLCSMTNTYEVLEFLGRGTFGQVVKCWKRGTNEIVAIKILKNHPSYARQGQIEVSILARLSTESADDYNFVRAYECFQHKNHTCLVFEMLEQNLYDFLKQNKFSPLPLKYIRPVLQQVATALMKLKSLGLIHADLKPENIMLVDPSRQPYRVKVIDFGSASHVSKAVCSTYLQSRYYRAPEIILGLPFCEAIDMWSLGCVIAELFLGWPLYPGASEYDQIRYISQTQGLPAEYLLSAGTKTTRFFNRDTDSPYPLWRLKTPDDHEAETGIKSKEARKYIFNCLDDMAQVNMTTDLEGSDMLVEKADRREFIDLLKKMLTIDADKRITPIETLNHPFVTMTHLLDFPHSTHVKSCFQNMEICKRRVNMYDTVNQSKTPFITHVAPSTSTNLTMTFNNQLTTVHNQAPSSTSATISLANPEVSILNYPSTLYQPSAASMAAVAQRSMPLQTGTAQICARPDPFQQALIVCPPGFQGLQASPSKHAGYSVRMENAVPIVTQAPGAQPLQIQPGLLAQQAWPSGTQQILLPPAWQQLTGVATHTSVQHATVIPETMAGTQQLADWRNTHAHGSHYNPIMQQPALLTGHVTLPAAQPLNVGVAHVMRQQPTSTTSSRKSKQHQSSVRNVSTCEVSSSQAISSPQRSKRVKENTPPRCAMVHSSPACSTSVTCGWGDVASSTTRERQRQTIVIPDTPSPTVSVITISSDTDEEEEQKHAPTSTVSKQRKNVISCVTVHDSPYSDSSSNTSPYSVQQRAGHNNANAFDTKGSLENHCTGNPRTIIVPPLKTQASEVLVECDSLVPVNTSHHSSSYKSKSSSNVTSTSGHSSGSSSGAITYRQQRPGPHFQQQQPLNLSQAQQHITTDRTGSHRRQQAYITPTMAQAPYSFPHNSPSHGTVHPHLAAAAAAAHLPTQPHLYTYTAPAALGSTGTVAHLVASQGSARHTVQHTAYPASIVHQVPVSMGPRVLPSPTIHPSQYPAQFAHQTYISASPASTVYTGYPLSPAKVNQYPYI
Experimental: as §1, §2, §3
HIPK2(h) was diluted in the buffer (20 mM MOPS, 1 mM EDTA, 0.01% Brij-35, 5% Glycerol, 0.1% β-mercaptoethanol, 1 mg/mL BSAs) to the concentration of 1.01 mg/mL prior to addition to the reaction mix.
(§6) The above stock solution of HIPK2(h) was added to a mixture containing 8 mM MOPS pH 7.0, 0.2 mM EDTA, and 0.33 mg/mL myelin basic protein in such amount that the resulting concentration of HIPK2(h) was 1.4 nM. This mixture was added to the stock solution of the tested compound. The reaction was initiated by the addition of the MgATP mix in such amount that the resulting concentration of Mg acetate in the reaction mixture was 10 mM and [γ-^33P-ATP] (specific activity approx. 500 cpm/pmol) was 10 μM. After incubation for 40 minutes at room temperature, the reaction was stopped by the addition of 3% phosphoric acid solution. 10 μL of the reaction was then spotted onto a P30 filtermat and washed three times for 5 minutes in 75 mM phosphoric acid and once in methanol prior to drying and scintillation counting.

[6] = target: T6, HIPK1(h) (Homo sapiens, UniProt Q86Z02); experiment: HIPK1 KinaseProfiler radiometric protein kinase assay; settings: 45 μM ATP, 40 minutes at room temperature
T6 construct: purchased Merck Millipore (KinaseProfiler service)
T6 sequence (Q86Z02 whole entry): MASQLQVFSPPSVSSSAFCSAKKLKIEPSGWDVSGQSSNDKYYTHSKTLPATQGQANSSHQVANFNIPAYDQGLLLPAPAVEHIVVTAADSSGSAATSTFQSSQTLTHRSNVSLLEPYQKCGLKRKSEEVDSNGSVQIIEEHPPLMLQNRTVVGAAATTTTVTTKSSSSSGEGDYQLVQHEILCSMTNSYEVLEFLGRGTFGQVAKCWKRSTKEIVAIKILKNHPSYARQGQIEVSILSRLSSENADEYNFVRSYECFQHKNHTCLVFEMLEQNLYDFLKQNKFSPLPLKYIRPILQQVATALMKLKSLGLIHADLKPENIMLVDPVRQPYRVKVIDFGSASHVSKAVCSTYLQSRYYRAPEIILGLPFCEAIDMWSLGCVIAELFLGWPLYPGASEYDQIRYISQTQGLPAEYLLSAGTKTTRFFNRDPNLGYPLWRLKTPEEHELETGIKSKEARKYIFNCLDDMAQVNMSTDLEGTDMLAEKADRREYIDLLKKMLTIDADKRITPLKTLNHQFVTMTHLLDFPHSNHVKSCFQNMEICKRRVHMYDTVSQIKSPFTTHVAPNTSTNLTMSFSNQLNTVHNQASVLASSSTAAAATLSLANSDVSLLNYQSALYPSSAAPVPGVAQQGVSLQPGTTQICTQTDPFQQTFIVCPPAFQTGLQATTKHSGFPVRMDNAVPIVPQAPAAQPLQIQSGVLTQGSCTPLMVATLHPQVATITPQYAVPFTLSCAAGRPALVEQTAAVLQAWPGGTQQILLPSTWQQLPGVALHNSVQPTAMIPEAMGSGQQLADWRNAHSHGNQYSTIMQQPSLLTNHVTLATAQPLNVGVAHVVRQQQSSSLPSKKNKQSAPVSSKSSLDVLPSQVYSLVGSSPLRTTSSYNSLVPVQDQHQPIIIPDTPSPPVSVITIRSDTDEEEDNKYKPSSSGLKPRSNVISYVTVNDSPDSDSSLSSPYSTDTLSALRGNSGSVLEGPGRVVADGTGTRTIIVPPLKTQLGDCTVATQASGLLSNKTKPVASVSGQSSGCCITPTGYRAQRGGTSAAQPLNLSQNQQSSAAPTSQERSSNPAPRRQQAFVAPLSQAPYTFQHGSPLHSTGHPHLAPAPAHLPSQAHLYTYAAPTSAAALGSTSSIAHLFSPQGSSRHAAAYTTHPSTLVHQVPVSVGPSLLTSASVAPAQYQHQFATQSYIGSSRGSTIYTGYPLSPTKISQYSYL
Experimental: as §1, §2, §3
HIPK1(h) was diluted in the buffer (20 mM MOPS, 1 mM EDTA, 0.01% Brij-35, 5% Glycerol, 0.1% β-mercaptoethanol, 1 mg/mL BSAs) to the concentration of 1.01 mg/mL prior to addition to the reaction mix.
as §6, with “solution of HIPK1(h) was added” for “solution of HIPK2(h) was added”, “concentration of HIPK1(h) was 4.7” for “concentration of HIPK2(h) was 1.4”, “HIPK1(h) was 4.7 nM. This” for “HIPK2(h) was 1.4 nM. This”, “cpm/pmol) was 45 μM. After” for “cpm/pmol) was 10 μM. After”

[7] = target: T7, HIPK3(h) (Homo sapiens, UniProt Q9H422); experiment: HIPK3 KinaseProfiler radiometric protein kinase assay; settings: 15 μM ATP, 40 minutes at room temperature
T7 construct: purchased Merck Millipore (KinaseProfiler service)
Experimental: as §1, §2, §3
HIPK3(h) was diluted in the buffer (20 mM MOPS, 1 mM EDTA, 0.01% Brij-35, 5% Glycerol, 0.1% β-mercaptoethanol, 1 mg/mL BSAs) to the concentration of 1.01 mg/mL prior to addition to the reaction mix.
as §4, with “HIPK3(h)” for “TRKA(h)”, “1.0 mg/mL myelin basic protein” for “250 μM KKKSPGEYVNIEFG,”, “6.4” for “28.2”, “15” for “120”

T1 sequence (P04629 33-796): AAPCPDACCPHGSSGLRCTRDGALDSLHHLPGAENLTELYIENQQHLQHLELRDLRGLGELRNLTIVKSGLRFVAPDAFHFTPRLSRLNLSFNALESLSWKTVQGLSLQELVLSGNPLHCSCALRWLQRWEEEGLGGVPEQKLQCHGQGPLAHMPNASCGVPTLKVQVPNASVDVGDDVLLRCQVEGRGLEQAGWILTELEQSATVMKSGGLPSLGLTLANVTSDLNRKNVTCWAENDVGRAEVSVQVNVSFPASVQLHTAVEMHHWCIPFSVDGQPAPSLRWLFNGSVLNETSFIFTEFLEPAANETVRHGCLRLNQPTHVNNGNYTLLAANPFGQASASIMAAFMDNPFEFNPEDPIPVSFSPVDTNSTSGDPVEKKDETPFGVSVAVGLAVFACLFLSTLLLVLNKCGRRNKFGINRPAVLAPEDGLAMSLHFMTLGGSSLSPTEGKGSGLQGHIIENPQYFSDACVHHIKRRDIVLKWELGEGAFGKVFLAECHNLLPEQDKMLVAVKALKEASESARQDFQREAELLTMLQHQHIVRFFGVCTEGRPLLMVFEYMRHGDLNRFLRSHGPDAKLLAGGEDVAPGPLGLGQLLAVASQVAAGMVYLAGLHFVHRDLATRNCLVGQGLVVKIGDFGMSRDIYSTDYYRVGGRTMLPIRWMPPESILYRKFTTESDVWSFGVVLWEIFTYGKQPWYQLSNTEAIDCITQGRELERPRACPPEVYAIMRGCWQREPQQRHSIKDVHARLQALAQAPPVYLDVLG

IC50 [1] | IC50 [2] | IC50 [3] | IC50 [4] | IC50 [5] | IC50 [6] | IC50 [7] | Structure (SMILES)
< 5 µM | – | < 5 µM | – | – | – | – | Cc1cc(Nc2cc(-c3ccccc3)nc3ccoc23)sn1 [Preparative Example 17E]
– | – | < 5 µM | – | – | – | – | c1ccc(-c2coc3ccc(Nc4ccncc4)nc23)cc1 [Preparative Example 8D]
< 5 µM | < 5 µM | < 5 µM | – | – | – | – | c1ccc(Nc2ccc3occ(-c4ccccc4)c3n2)cc1 [Preparative Example 8E]

Further lines, the compound ahead of its results:

Structure (SMILES) | IC50 [1] | IC50 [2] | IC50 [3] | IC50 [4] | IC50 [5] | IC50 [6] | IC50 [7]
CN1CCN(c2ccc(Nc3ccc4occ(-c5ccccc5)c4n3)cc2)CC1 [Preparative Example 8C] | < 5 µM | < 5 µM | < 5 µM | – | – | – | –
c1ccc(-c2coc3ccc(Nc4ccc(N5CCOCC5)cc4)nc23)cc1 [Preparative Example 8B] | < 5 µM | – | < 1 µM | < 1 µM | – | – | –
Cc1n[nH]c(C)c1-c1ccc2occ(-c3ccc4ccccc4c3)c2n1 [Preparative Example 7D] | – | < 5 µM | – | < 5 µM | < 1 µM | < 5 µM | < 5 µM
Cn1cc(-c2ccc3occ(-c4ccc5ccccc5c4)c3n2)cn1 [Preparative Example 7A] | – | < 0.1 µM | – | < 0.1 µM | < 1 µM | < 1 µM | < 1 µM

— US9902733B2, “Furopyridines as inhibitors of protein kinases” (MASARYKOVA UNIVERZITA, priority 2014, dated 2018)
